Test results from the supplement of paper PMC10307832.

Legend:
Experiment in all cases: relative viability (nuclei count vs DMSO), 5 days (fraction); higher = more cells survive
BAY61-3606 + Crizotinib = compound: COC1=C(C=C(C=C1)C2=CC3=NC=CN3C(=N2)NC4=C(C=CC=N4)C(=O)N)OC [BAY61-3606] + C[C@@H](Oc1cc(-c2cnn(C3CCNCC3)c2)cnc1N)c1c(Cl)ccc(F)c1Cl [Crizotinib] (partner 1 µM)
Procedure, shortened: (§1)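 Lung cancer cell lines, seeded in 1536-well plates, were treated the following day by pin tool with a single drug or with five library-drug doses (not always all listed) in √10 steps on top of a fixed anchor-drug dose. Cells were fixed and nuclei stained in one step after 5 days, and nuclei were counted. Relative viability is the nuclei count for treated wells divided by that for vehicle wells, reported as medians of duplicate plates.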

BAY61-3606 + Palbociclib = compound: COC1=C(C=C(C=C1)C2=CC3=NC=CN3C(=N2)NC4=C(C=CC=N4)C(=O)N)OC [BAY61-3606] + CC(=O)c1c(C)c2cnc(Nc3ccc(N4CCNCC4)cn3)nc2n(C2CCCC2)c1=O [Palbociclib] (partner 0.5 µM)
Procedure, shortened: as §1

Doxorubicin + Vorinostat = compound: COc1cccc2c1C(=O)c1c(O)c3c(c(O)c1C2=O)C[C@@](O)(C(=O)CO)C[C@@H]3O[C@H]1C[C@H](N)[C@H](O)[C@H](C)O1 [Doxorubicin] + O=C(CCCCCCC(=O)Nc1ccccc1)NO [Vorinostat] (partner 1 µM)
Procedure, shortened: as §1

Doxorubicin + Bortezomib = compound: COc1cccc2c1C(=O)c1c(O)c3c(c(O)c1C2=O)C[C@@](O)(C(=O)CO)C[C@@H]3O[C@H]1C[C@H](N)[C@H](O)[C@H](C)O1 [Doxorubicin] + CC(C)C[C@H](NC(=O)[C@H](Cc1ccccc1)NC(=O)c1cnccn1)B(O)O [Bortezomib] (partner 0.002 µM)
Procedure, shortened: as §1

Cell Line | relative viability (BAY61-3606 + Crizotinib; first compound 0.02 µM) | relative viability (BAY61-3606 + Crizotinib; first compound 0.06325 µM) | relative viability (BAY61-3606 + Crizotinib; first compound 0.2 µM) | relative viability (BAY61-3606 + Crizotinib; first compound 0.6325 µM) | relative viability (BAY61-3606 + Crizotinib; first compound 2 µM) | relative viability (BAY61-3606 + Palbociclib; first compound 0.02 µM) | relative viability (BAY61-3606 + Palbociclib; first compound 0.06325 µM) | relative viability (BAY61-3606 + Palbociclib; first compound 0.2 µM) | relative viability (BAY61-3606 + Palbociclib; first compound 0.6325 µM) | relative viability (BAY61-3606 + Palbociclib; first compound 2 µM) | relative viability (Doxorubicin + Vorinostat; first compound 0.001 µM) | relative viability (Doxorubicin + Vorinostat; first compound 0.003162 µM) | relative viability (Doxorubicin + Vorinostat; first compound 0.01 µM) | relative viability (Doxorubicin + Vorinostat; first compound 0.03162 µM) | relative viability (Doxorubicin + Vorinostat; first compound 0.1 µM) | relative viability (Doxorubicin + Bortezomib; first compound 0.001 µM) | relative viability (Doxorubicin + Bortezomib; first compound 0.003162 µM) | relative viability (Doxorubicin + Bortezomib; first compound 0.01 µM) | relative viability (Doxorubicin + Bortezomib; first compound 0.03162 µM) | relative viability (Doxorubicin + Bortezomib; first compound 0.1 µM)
NCI-H2405 | 0.856 | 0.787 | 0.764 | 0.849 | 0.661 | 0.564 | 0.517 | 0.503 | 0.592 | 0.494 | 1.2 | 1.17 | 0.971 | 0.804 | 0.323 | 1 | 1.01 | 0.973 | 0.994 | 0.994
NCI-H3122 | 0.252 | 0.286 | 0.279 | 0.272 | 0.219 | 0.159 | 0.185 | 0.226 | 0.231 | 0.189 | 0.839 | 0.982 | 0.853 | 0.907 | 0.998 | 1.04 | 0.97 | 1.02 | 1.01 | 0.957
PC-3 [JPC-3] | 1.03 | 0.961 | 0.979 | 0.96 | 0.944 | 0.531 | 0.512 | 0.529 | 0.521 | 0.517 | 1.02 | 0.946 | 0.824 | 0.747 | 0.416 | 0.81 | 0.926 | 0.863 | 0.79 | 0.8
PC-14 | 0.855 | 0.803 | 0.865 | 0.974 | 0.757 | 0.455 | 0.546 | 0.468 | 0.514 | 0.453 | 0.655 | 0.781 | 0.709 | 0.182 | 0.0946 | 0.775 | 0.964 | 0.861 | 0.979 | 0.94
RERF-LC-KJ | 0.826 | 0.777 | 0.817 | 0.819 | 0.785 | 1.03 | 1.2 | 1.03 | 1.18 | 0.924 | 0.672 | 0.721 | 0.632 | 0.469 | 0.487 | 1.03 | 1.2 | 1.03 | 0.809 | 0.967
SK-LU-1 | 1.08 | 0.853 | 0.904 | 0.889 | 0.398 | 0.356 | 0.384 | 0.35 | 0.357 | 0.289 | 0.719 | 0.87 | 0.674 | 0.494 | 0.461 |  | 1.19 | 1.25 | 0.945 | 0.671
SW 1573 | 0.802 | 0.65 | 0.745 | 0.785 | 0.588 | 0.455 | 0.423 | 0.35 | 0.344 | 0.248 | 0.725 | 0.481 | 0.233 | 0.109 | 0.104 | 0.98 | 1.1 | 0.817 | 0.466 | 0.339
